Laboratory results reported in patent US7381265B2, “Method for crystallization of a weakly acidic and/or weakly basic compound” (Hoffmann-La Roche Inc., priority 2005, dated 2008).

Experiment: potentiometric solubility-pH profile titration (pSol)
Format: physicochemical
Details: FIG. 8
Description: The above described titration e.g. of a weak base B from high to low pH-values is used for potentiometric determination of solubility profiles according to the so-called “pSol method” (see e.g. Avdeef, A., 1998, loc. cit.). However, in pSol titrations the phenomenon of a “perfect” buffer system is not encountered frequently because in order to obtain good titration results it is advisable to use only small amounts of the compound under investigation. This leads to a situation where the whole amount of the compound is dissolved before the maximal effective concentration corresponding to point 2 in FIG. 1 is reached. This is illustrated in FIG. 3, where reduction of the pH-value leads along the solubility profile until reaching the point denoted as 2′ in FIG. 3. […] Therefore, the total concentration of the compound remains constant at a value CT.
Measurements of solubility-pH profiles were carried out on a “pSol” apparatus (see e.g. Avdeef, A., 2001, loc. cit.). The potentiometric solubility measurement with the pSol apparatus takes as input parameters the weighted amount of the said compound, the volume of the solution, the measured pKa and the measured (or calculated) octanol/water partition coefficient, logP. […]

COc1ccc2c3c1O[C@H]1[C@@H](O)C=C[C@H]4[C@@H](C2)N(C)CC[C@@]341 [codeine]
pH at which the precipitation begins (total concentration about 58 mg/mL for the titration): about 7 | pH at which the precipitation begins (total concentration of about 13 mg/mL for the titration): about 8
